≈ marks a conversion by molar mass, not a printed value.
What was measured:
HL-60 [1] = test: Cytotoxicity against human HL60 cells by trypan blue exclusion method; assay type: functional, cell-based
[2] = Cytotoxicity against concanavalin-stimulated human lymphocytes cells assessed as cell viability at 50 ng/mL after 4 days by trypan blue exclusion method; assay type: cell-based, Lymphocyte; settings: read-out: Activity
[3] = Cytotoxicity against human DHL6 cells by trypan blue exclusion method; assay type: functional, cell-based; settings: SU-DHL-6
HL-60 [4] = test: Induction of apoptosis in human HL60 cells after 24 hrs by DAPI staining; assay type: functional, cell-based; settings: HL-60, 24 h
[5] = Cytotoxicity against human RS4:11 cells by trypan blue exclusion method; assay type: functional, cell-based
REH = test: Cytotoxicity against human REH cells by trypan blue exclusion method; assay type: functional, cell-based
U-266 = test: Induction of apoptosis in human U266 cells after 24 hrs by DAPI staining; assay type: functional, cell-based; settings: U-266, 24 h
K562 = test: Cytotoxicity against human K562 cells assessed as cell viability at 50 ng/mL after 4 days by trypan blue exclusion method; assay type: functional; settings: K562, 96 h, read-out: Activity
NCI-H929 = test: Induction of apoptosis in human NCI-H929 cells after 24 hrs by DAPI staining; assay type: functional, cell-based; settings: NCI-H929, 24 h
BV-173 = test: Cytotoxicity against human BV173 cells by trypan blue exclusion method; assay type: functional, cell-based
U-937 = test: Cytotoxicity against human U937 cells by trypan blue exclusion method; assay type: functional, cell-based
RPMI-8226 [6] = test: Antitumor activity in human RPMI8226 cells xenografted in SCID mouse assessed as induction of apoptosis in peripheral proliferating areas at 5 to 12 mg mg/kg, ip administered every 3 days; assay type: functional
Kasumi 1 = test: Cytotoxicity against human Kasumi-1 cells by trypan blue exclusion method; assay type: functional, cell-based
NB-4 = test: Cytotoxicity against human NB4 cells by trypan blue exclusion method; assay type: functional, cell-based
RPMI-8226 [7] = test: Induction of apoptosis in human RPMI8226 cells after 24 hrs by DAPI staining; assay type: functional, cell-based; settings: RPMI-8226, 24 h
Daudi = test: Cytotoxicity against human Daudi cells by trypan blue exclusion method; assay type: functional, cell-based
[8] = Cytotoxicity against human SUP-B13 cells by trypan blue exclusion method; assay type: functional, cell-based

## COC(=O)[C@@]12OC[C@]34[C@H]([C@@H](O)[C@@H]1O)[C@@]1(C)CC(=O)C(O)=C(C)[C@@H]1C[C@H]3OC(=O)[C@H](OC(=O)/C=C(\C)C(C)C)[C@@H]24 [BRUCEANTIN]
HL-60 [1]
  IC50: 0.02 µg/mL (≈ 0.0365 µM)
[2]
  viability at 96 h, 50 ng/mL: 90%
[3]
  IC50: < 0.015 µg/mL
HL-60 [4]
  IC50: 12.2 nM
[5]
  IC50: < 0.015 µg/mL
REH
  IC50: 0.02 µg/mL (≈ 0.0365 µM)
U-266
  IC50: 49 nM
K562
  viability at 0.05 µg/mL: 90%
NCI-H929
  IC50: 115 nM
BV-173
  IC50: < 0.015 µg/mL
U-937
  IC50: < 0.015 µg/mL
RPMI-8226 [6]
  Activity: 36.6%
Kasumi 1
  IC50: 0.02 µg/mL (≈ 0.0365 µM)
NB-4
  IC50: < 0.015 µg/mL
RPMI-8226 [7]
  IC50: 12.8 nM
Daudi
  IC50: < 0.015 µg/mL
[8]
  IC50: < 0.015 µg/mL

Reference: ChEMBL document CHEMBL1146483, “Antitumor activity of bruceantin: an old drug with new promise” (J Nat Prod, 2004)
